Assay [1] deals with EGFR L858R/T790M (Homo sapiens, UniProt P00533, L858R/T790M). Description: HTRF-based EGFR biochemical assay (L858R/T790M). The note with it: 100 μM ATP, enzyme 0.02 nM. How it is done: (§1) EGFR biochemical activity measurements were carried out using the homogeneous time-resolved fluorescence (HTRF) assay (Cisbio). Inhibitors and DMSO normalizations were first dispensed to empty black low-volume 384-well plates (Corning) with D300 digital liquid dispenser (HP). All reactions were carried out at room temperature and solutions were added to plates with a Multidrop Combi Reagent Dispenser (ThermoFisher). The reaction mixture (10 μL final volume) contained 1 μM tyrosine kinase peptide-biotin substrate and mutant EGFR in a reaction buffer (50 mM HEPES pH 7.0, 5 mM MgCl2, 1 mM MnCl2, 0.01% BSA, 2 mM TCEP, 0.1 mM NaVO4). […] Enzyme reaction solution (2× concentrations, 5 μL) was added to 384-well plates containing compounds and incubated for 30 mins. Enzyme reactions were initiated with the addition of 5 μL of ATP to a final concentration of 100 μM and reacted for 20 mins.
Sequence of EGFR L858R/T790M (P00533 25-1210 T790M/L858R): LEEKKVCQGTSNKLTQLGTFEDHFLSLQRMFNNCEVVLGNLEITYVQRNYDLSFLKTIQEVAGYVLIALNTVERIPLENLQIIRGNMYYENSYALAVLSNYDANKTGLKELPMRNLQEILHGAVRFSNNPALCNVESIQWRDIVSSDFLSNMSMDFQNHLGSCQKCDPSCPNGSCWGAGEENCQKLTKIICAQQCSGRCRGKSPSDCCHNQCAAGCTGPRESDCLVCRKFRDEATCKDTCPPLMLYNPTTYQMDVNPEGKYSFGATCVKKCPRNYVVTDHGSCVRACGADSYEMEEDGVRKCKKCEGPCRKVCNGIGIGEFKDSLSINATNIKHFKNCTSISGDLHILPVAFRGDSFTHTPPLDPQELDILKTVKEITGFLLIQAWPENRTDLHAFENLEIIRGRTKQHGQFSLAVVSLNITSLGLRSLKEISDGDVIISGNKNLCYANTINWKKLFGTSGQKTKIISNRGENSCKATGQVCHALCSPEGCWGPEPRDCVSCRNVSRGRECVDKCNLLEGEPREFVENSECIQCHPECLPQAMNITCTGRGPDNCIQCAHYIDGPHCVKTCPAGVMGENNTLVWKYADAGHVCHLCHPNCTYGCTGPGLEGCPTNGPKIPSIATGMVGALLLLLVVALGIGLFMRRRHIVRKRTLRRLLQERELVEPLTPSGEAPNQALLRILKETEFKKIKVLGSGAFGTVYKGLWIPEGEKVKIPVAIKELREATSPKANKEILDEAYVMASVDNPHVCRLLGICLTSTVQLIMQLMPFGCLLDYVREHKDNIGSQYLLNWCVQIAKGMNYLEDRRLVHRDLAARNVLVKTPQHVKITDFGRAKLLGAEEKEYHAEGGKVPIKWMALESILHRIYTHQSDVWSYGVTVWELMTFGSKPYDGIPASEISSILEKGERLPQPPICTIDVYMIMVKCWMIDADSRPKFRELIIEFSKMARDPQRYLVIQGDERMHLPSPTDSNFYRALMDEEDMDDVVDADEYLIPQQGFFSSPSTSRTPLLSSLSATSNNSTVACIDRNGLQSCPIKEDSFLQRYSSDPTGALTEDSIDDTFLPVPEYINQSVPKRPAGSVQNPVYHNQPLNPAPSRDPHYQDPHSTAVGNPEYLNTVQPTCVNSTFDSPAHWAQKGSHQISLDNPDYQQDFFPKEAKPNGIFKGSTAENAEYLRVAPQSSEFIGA
A general note: In TR-FRET formats the signal depends on donor and acceptor labels being close together.

Assay [2] concerns the target EGFR L858R (Homo sapiens, UniProt P00533, L858R). The assay can be described thus: HTRF-based EGFR biochemical assay (L858R). Conditions: 100 μM ATP, enzyme 0.1 nM. How it is done: as §1, with “20 mins. Reactions were quenched with the addition of 10 μL of phospho-tyrosine antibody-Europium(III) cryptate (1-to-180 volume ratio) and Streptavidin-XL665 (46.7 nM) in EDTA-containing detection buffer, then incubated at room temperature for 1 hour, and read with a PHERAstar plate reader (excitation=337 nm, emission=620 nm and 665 nm).” for “20 mins.”

Assay [3] addresses EGFR L858R/T790M mutant Ba/F3 cells (Homo sapiens, UniProt P00533, T790M/L858R, cells depend on it). Description: Ba/F3 cell proliferation (Cell Titer Glo). The assay is classed as cell-based, murine. Conditions: 72 hours. From the text: All cell lines were maintained in RPMI 1640 (Cellgro; Mediatech Inc., Herndon, CA) supplemented with 10% FBS, 100 units/mL penicillin, 100 units/mL streptomycin. The EGFR I941R mutation was introduced via site directed mutagenesis using the Quick Change Site-Directed Mutagenesis kit (Stratagene; La Jolla, CA) according to the manufacturer's instructions. All constructs were confirmed by DNA sequencing. The constructs were shuttled into the retroviral vector JP1540 using the Cre-recombination system (Agilent Technologies, Santa Clara, CA). Ba/F3 cells were then infected with retrovirus per standard protocols, as described previously (Zhou, et al, Nature 2009). Stable clones were obtained by selection in puromycin (2 μg/ml).
Growth and inhibition of growth was assessed by the Cell Titer Glo assay (Promega, Madison, WI) and was performed according to the manufacturer's instructions. The Cell Titer Glo assay is a luminescence-based method used to determine the number of viable cells based on quantitation of the ATP present, which is directly proportional to the amount of metabolically active cells present. […] All experimental points were set up in triplicates in 384-well plates and all experiments were repeated at least three times. […] The curves were fitted using a non-linear regression model with a sigmoidal dose response.
(In general: Cellular ATP, detected with luciferase, serves as a proxy for viable cell number.)

The mark [4] stands for this setting: in combination with 1 μg/ml cetuximab, read-out: Cell IC50 BaF3 L858R/T790M compound + cetuximab.
[5] abbreviates: single agent, read-out: Cell IC50 EGFR BaF3 L858R/T790M.

Like-named read-outs stand apart in the source and are kept apart here. A value given as a limit tells only on which side of the number the result lay.

Sequence of EGFR L858R (P00533 25-1210 L858R): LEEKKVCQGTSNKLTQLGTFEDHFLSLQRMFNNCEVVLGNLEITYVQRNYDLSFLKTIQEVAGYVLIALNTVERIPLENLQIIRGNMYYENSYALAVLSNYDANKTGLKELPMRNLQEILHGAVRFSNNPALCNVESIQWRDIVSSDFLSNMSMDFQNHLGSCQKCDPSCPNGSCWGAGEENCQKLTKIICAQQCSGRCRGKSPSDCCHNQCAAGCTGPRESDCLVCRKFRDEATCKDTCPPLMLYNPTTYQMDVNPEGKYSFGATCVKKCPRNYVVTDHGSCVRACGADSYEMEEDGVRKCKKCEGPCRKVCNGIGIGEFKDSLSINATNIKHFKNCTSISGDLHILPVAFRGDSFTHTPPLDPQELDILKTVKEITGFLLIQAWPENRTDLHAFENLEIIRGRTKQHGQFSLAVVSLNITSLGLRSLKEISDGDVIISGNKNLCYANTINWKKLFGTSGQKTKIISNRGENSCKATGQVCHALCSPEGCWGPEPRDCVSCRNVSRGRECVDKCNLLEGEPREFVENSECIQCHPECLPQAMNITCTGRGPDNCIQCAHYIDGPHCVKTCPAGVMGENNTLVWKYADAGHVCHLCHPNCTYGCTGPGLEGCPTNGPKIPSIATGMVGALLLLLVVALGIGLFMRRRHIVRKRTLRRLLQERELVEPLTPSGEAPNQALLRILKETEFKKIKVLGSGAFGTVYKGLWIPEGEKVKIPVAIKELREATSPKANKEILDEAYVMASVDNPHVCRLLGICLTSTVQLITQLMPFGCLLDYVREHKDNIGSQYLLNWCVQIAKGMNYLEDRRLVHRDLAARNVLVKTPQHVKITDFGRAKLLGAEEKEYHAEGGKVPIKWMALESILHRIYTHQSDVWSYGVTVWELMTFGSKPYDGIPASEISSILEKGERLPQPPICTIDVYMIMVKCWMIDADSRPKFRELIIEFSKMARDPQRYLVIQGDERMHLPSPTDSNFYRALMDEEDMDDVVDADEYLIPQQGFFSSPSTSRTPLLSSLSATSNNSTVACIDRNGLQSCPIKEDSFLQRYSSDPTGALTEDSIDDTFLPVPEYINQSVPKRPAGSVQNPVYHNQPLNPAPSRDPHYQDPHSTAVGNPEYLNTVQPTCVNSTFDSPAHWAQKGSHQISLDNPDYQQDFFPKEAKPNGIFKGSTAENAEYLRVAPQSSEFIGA
Sequence of EGFR L858R/T790M mutant Ba/F3 cells (P00533 whole entry T790M/L858R): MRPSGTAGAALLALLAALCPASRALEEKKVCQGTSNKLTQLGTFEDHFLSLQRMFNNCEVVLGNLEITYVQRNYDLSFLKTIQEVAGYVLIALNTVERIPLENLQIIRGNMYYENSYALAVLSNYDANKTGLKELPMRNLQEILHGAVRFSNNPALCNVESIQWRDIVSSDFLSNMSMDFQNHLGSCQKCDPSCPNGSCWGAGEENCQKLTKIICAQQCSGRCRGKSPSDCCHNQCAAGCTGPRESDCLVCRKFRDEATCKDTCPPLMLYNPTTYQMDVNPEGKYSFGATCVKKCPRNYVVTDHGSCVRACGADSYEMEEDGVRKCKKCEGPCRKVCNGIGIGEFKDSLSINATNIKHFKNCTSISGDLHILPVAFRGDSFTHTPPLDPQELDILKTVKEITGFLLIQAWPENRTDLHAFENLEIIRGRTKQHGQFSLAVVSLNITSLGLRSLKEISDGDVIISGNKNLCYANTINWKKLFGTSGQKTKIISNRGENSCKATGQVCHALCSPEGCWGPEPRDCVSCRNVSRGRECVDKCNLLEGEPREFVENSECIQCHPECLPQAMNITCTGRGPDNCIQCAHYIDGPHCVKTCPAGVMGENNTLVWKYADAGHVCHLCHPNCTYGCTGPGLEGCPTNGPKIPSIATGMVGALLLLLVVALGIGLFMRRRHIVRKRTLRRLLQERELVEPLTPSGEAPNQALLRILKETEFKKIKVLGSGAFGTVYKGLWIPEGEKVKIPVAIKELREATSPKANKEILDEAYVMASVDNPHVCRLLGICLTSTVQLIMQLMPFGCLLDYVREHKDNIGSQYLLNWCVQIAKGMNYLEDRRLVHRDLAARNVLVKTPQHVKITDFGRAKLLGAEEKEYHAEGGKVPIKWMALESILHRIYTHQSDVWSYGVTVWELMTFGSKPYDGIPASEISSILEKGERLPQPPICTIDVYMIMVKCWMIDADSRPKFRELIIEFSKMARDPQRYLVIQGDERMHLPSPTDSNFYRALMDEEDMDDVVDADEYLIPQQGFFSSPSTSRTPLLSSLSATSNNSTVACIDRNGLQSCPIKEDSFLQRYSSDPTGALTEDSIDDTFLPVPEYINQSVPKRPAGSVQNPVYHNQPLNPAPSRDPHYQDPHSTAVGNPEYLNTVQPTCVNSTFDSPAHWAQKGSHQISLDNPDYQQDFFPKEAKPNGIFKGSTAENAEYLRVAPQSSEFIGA

The IC50 is the midpoint of a concentration-inhibition curve. Higher therefore signals weaker potency. In the case of `O=C(Nc1nccs1)C(c1ccccc1)n1cnc2cc(Br)ccc2c1=O` (centres unmarked) [Compound 001, 2-(7-Bromo-4-oxoquinazolin-3(4H)-yl)-2-phenyl-N-(thiazol-2-yl)acetamide], the results for the IC50 in assay [1] and in assay [2] were 0.062 µM and 1.26 µM, respectively. Also, the GI50 in assay [3] (setting [4]) was 8.3 µM; in assay [3] (setting [5]), over 10 µM.
The corresponding values for `O=C(Nc1nccs1)C(c1ccccc1)n1cnc2ccc(Br)cc2c1=O` (centres unmarked) [Compound 002, 2-(6-Bromo-4-oxoquinazolin-3(4H)-yl)-2-phenyl-N-(thiazol-2-yl)-acetamide] are 0.035 µM, 0.275 µM, 0.98 µM and over 10 µM.
Take `O=C(Nc1nccs1)C(c1ccccc1)n1ccc2cc(Br)ccc2c1=O` (centres unmarked) [Compound 003, 2-(6-Bromo-1-oxoisoquinolin-2(1H)-yl)-2-phenyl-N-(thiazol-2-yl)-acetamide]: the half-maximal inhibitory concentration (IC50) in assay [1] is 0.016 µM; in assay [2], 0.245 µM. Besides, the GI50 in assay [3] (setting [4]) is 2 µM; in assay [3] (setting [5]) it was over 10 µM.
For the compound `O=C(Nc1nccs1)C(c1ccccc1)n1ccc2ccc(Br)cc2c1=O` (centres unmarked) [Compound 004, 2-(7-Bromo-1-oxoisoquinolin-2(1H)-yl)-2-phenyl-N-(thiazol-2-yl)-acetamide], the IC50 in assay [1] came out at 0.029 µM; in assay [2], 0.521 µM. In addition, the figures for the GI50 in assay [3] (setting [4]) and in assay [3] (setting [5]) were 0.79 µM and over 10 µM, respectively.
In the case of `O=C(Nc1nccs1)C(c1ccccc1)n1cnc2cc(Br)c(F)cc2c1=O` (centres unmarked) [Compound 005, 2-(7-Bromo-6-fluoro-4-oxoquinazolin-3(4H)-yl)-2-phenyl-N-(thiazol-2-yl)acetamide], the half-maximal inhibitory concentration (IC50) in assay [1] is 0.091 µM; in assay [2] it was over 1 µM. The values for the GI50 in assay [3] (setting [4]) and in assay [3] (setting [5]) were 4.8 µM and over 10 µM, respectively.
On to `O=C(Nc1nccs1)C(c1ccccc1)n1cc(F)c2cc(Br)ccc2c1=O` (centres unmarked) [Compound 006, 2-(6-Bromo-4-fluoro-1-oxo-isoquinolin-2(1H)-yl)-2-phenyl-N-(thiazol-2-yl)acetamide], for which the IC50 in assay [1] is 0.036 µM; in assay [2] it was over 1 µM. Moreover, the GI50 in assay [3] (setting [4]) is 1.8 µM; in assay [3] (setting [5]), over 10 µM.
In the same order, the values of `O=C(Nc1nccs1)C(c1cccc(F)c1)n1ccc2ccc(Br)cc2c1=O` (centres unmarked) [Compound 007, 2-(7-Bromo-1-oxoisoquinolin-2(1H)-yl)-2-(3-fluorophenyl)-N-(thiazol-2-yl)acetamide] are 0.048 µM, over 1 µM, 1.5 µM and over 10 µM.
In the same order, the values of `O=C(Nc1nccs1)C(c1cccc(F)c1)n1ccc2cc(Br)ccc2c1=O` (centres unmarked) [Compound 008, 2-(6-Bromo-1-oxoisoquinolin-2(1H)-yl)-2-(3-fluorophenyl)-N-(thiazol-2-yl)acetamide] are 0.064 µM, over 1 µM, 2.5 µM and over 10 µM.
With `O=C(Nc1nccs1)C(c1ccccc1)n1ncc2cc(Br)ccc2c1=O` (centres unmarked) [Compound 009, 2-(6-Bromo-1-oxophthalazin-2(1H)-yl)-2-phenyl-N-(thiazol-2-yl)-acetamide], the IC50 in assay [1] was 0.01 µM; in assay [2] it was over 1 µM. Besides, the GI50 in assay [3] (setting [4]) and in assay [3] (setting [5]) was over 10 µM throughout.
`O=C(Nc1nccs1)C(c1cccc(F)c1)n1cnc2cc(Br)ccc2c1=O` (centres unmarked) [Compound 010, 2-(7-Bromo-4-oxoquinazolin-3(4H)-yl)-2-(3-fluorophenyl)-N-(thiazol-2-yl)acetamide]: the values for the IC50 in assay [1] and in assay [2] were 0.054 µM and 1.84 µM, respectively. Moreover, the GI50 in assay [3] (setting [4]) and in assay [3] (setting [5]) was over 10 µM each time.
For the compound `O=C(Nc1nccs1)C(c1cccc(F)c1)n1cnc2ccc(Br)cc2c1=O` (centres unmarked) [Compound 011, 2-(6-Bromo-4-oxoquinazolin-3(4H)-yl)-2-(3-fluorophenyl)-N-(thiazol-2-yl)acetamide], the IC50 in assay [1] was 0.016 µM; in assay [2], 0.195 µM. The values for the GI50 in assay [3] (setting [4]) and in assay [3] (setting [5]) were 0.35 µM and over 10 µM, respectively.
`CN1CCC(c2ccc(-c3ccc4c(=O)n(C(C(=O)Nc5nccs5)c5ccccc5)cnc4c3)cc2)CC1` (centres unmarked) [Compound 012, 2-(7-(4-(1-Methylpiperidin-4-yl)phenyl)-4-oxoquinazolin-3(4H)-yl)-2-phenyl-N-(thiazol-2-yl)acetamide]: the figures for the half-maximal inhibitory concentration (IC50) in assay [1] and in assay [2] were 0.006 µM and 0.011 µM, respectively. Moreover, the GI50 stood at 0.2 µM in assay [3] (setting [4]) and 2.15 µM in assay [3] (setting [5]).
In the same order, the values of `CN1CCN(c2ccc(-c3ccc4c(=O)n(C(C(=O)Nc5nccs5)c5ccccc5)cnc4c3)cc2)CC1` (centres unmarked) [Compound 013, 2-(7-(4-(4-Methylpiperazin-1-yl)-phenyl)-4-oxoquinazolin-3(4H)-yl)-2-phenyl-N-(thiazol-2-yl)acetamide] are 0.003 µM, 0.014 µM, 0.38 µM and 2 µM.
Regarding `CN1CCC(c2ccc(-c3ccc4ncn(C(C(=O)Nc5nccs5)c5ccccc5)c(=O)c4c3)cc2)CC1` (centres unmarked) [Compound 014, 2-(6-(4-(1-Methylpiperidin-4-yl)-phenyl)-4-oxoquinazolin-3(4H)-yl)-2-phenyl-N-(thiazol-2-yl)acetamide], the half-inhibitory concentration (IC50) turned out to be 0.0002 µM in assay [1] and 0.003 µM in assay [2]. Further, the GI50 amounted to 0.005 µM in assay [3] (setting [4]) and 0.51 µM in assay [3] (setting [5]).
`CN1CCN(c2ccc(-c3ccc4ncn(C(C(=O)Nc5nccs5)c5ccccc5)c(=O)c4c3)cc2)CC1` (centres unmarked) [Compound 015, 2-(6-(4-(4-Methylpiperazin-1-yl)-phenyl)-4-oxoquinazolin-3(4H)-yl)-2-phenyl-N-(thiazol-2-yl)acetamide]: the IC50 was determined as 0.001 µM in assay [1] and 0.007 µM in assay [2]. For the same compound, the GI50 in assay [3] (setting [4]) worked out at 0.02 µM; in assay [3] (setting [5]), 2.32 µM.
For the compound `CN1CCC(c2ccc(-c3ccc4c(=O)n(C(C(=O)Nc5nccs5)c5ccccc5)ccc4c3)cc2)CC1` (centres unmarked) [Compound 016, 2-(6-(4-(1-Methylpiperidin-4-yl)-phenyl)-1-oxoisoquinolin-2(1H)-yl)-2-phenyl-N-(thiazol-2-yl)acetamide], the figures for the IC50 in assay [1] and in assay [2] were 0.001 µM and 0.003 µM, respectively. For the same compound, the GI50 in assay [3] (setting [4]) was 0.02 µM; in assay [3] (setting [5]) it was 1.19 µM.
In the same order, the values of `CN1CCN(c2ccc(-c3ccc4c(=O)n(C(C(=O)Nc5nccs5)c5ccccc5)ccc4c3)cc2)CC1` (centres unmarked) [Compound 017, 2-(6-(4-(4-Methylpiperazin-1-yl)-phenyl)-1-oxoisoquinolin-2(1H)-yl)-2-phenyl-N-(thiazol-2-yl)acetamide] are 0.003 µM, 0.007 µM, 0.062 µM and 1.27 µM.
`CN1CCC(c2ccc(-c3ccc4ccn(C(C(=O)Nc5nccs5)c5ccccc5)c(=O)c4c3)cc2)CC1` (centres unmarked) [Compound 018, 2-(7-(4-(1-Methylpiperidin-4-yl)-phenyl)-1-oxoisoquinolin-2(1H)-yl)-2-phenyl-N-(thiazol-2-yl)acetamide]: the results for the IC50 in assay [1] and in assay [2] were 0.002 µM and 0.012 µM, respectively. Besides, the GI50 in assay [3] (setting [4]) worked out at 0.072 µM; in assay [3] (setting [5]), 1.52 µM.
As for `O=C(Nc1nccs1)C(c1ccccc1)n1cnc2ccc(C#Cc3cccnc3)cc2c1=O` (centres unmarked) [Compound 061, 2-(4-Oxo-6-(pyridin-3-ylethynyl)quinazolin-3(4H)-yl)-2-phenyl-N-(thiazol-2-yl)acetamide], the GI50 in assay [3] (setting [4]) amounted to 0.028 µM; in assay [3] (setting [5]), 4.52 µM.
